The text below walks through data of patent US20210253454A1, “MICELLAR DELIVERY METHOD” (EVONIK OPERATIONS GMBH, priority 2018, published 2021).

The subject of data set [1] is Pseudomonas aeruginosa (ATCC 15442) biofilm. In words: Biocidal activity on biofilm, CDC Biofilm reactor, glass coupons, 1-4 hrs. In kind it is cell-based. The settings on record: initial 100 ppm. An excerpt:
We evaluated the biocidal activity of PAA-surfactant solutions on microbial biofilms using a CDC Biofilm reactor from BioSurface Technologies. This reactor supplies a continuous flow of nutrient broth through a container that exposes bacteria growing on glass coupons to shear forces. The setup mimics at least two features typical for oilfield operations: a renewable nutrient source and shear forces applied to the biofilms. All reactor parts were cleaned with a solution of 1% Neutrad lab soap and rinsed well with deionized water, and allowed to dry prior to autoclaving on a 20 minutes gravity cycle to sterilize.
Pseudomonas aeruginosa (ATCC 15442) biofilm was grown for 48 hours in the biofilm reactor on glass coupons at 25° C. A solution containing 300 mg/L of sterile trypticase soy broth (TSB) was used as nutrient feed. 1 mL of the working inoculum of P. aeruginosa was added through the inoculation port. The first step was a 24 hours batch phase followed by 24 hours in continuous flow mode, when 100 mg/L TSB solution was pumped into the stirring reactor for about 24 hours at room temperature to create a matured biofilm on the coupon surfaces.
(§1) Upon completion of the biofilm growth phase, the coupons were removed and rinsed by immersion into 30 mL dilution buffer. Coupons were placed into sterile centrifuge test tubes and 4 mL biocide or buffer were added. Then the tubes were vortexed on low speed to ensure complete coverage of the coupon. At the appropriate time, the biocide was poured off, and reserved for chemical analysis of PAA and hydrogen peroxide. Then, a 10 mL aliquot of chemical neutralizing Letheen broth with 0.5% sodium thiosulfate was added to each tube. One treated coupon from each treatment group was removed at final time point for visual analysis.
The compositions were diluted with deionized water before use, such that the initial concentration of PAA-surfactant active ingredient was 100 ppm.
In order to recover remaining viable bacteria from the coupons, the test tubes with coupons were vortexed for 30 s on highest setting, and then sonicated for 30 s at 45 kHz. This treatment was then repeated twice. After that, the broth was diluted serially into Butterfield's buffer, and the dilutions plated on 3M™ Petrifilm™ Aerobic Count Plates. The plates were incubated for 48 hours at 35° C., and then counted. Calculations were performed to obtain the Log10 CFU/mL of the solutions at each time point.

Data set [2] can be described thus: Oxidizer (PAA, hydrogen peroxide) concentration in treatment solution during biofilm test. Type of data set: physicochemical. As to conditions: initial 100 ppm. The protocol:
as §1
PAA and Hydrogen peroxide concentrations were monitored during the test by using Chemetrics test kits K-7913F and K-5543.
We further evaluated the biocidal activity of PAA-surfactant solutions on microbial biofilms using a CDC Biofilm reactor from BioSurface Technologies as described in Example 9. The three biocide solutions were also as described in Example 9, but the contact time was increased to about 72 hours under agitation. Additionally, for this test, the biocide aliquot was increased from the standard method amount of 4 mL up to 30 mL. These adjustments were made to more accurately simulate expected field conditions. The recovery was performed as described in the Example 8. […] Chemical analysis indicated only a slight reduction in concentrations of both PAA and hydrogen peroxide over the 72-hour time period.

Molecules are shown by their SMILES.

For the compound `CC(=O)OO` [PAA, peracetic acid], the results for the Log10 reduction in data set [1] (1 hrs), in data set [1] (2 hrs) and in data set [1] (4 hrs) were 1.4 Log10, 2.2 Log10 and 3.1 Log10, respectively. The values for the Log10 remaining in data set [1] (1 hrs), in data set [1] (2 hrs) and in data set [1] (4 hrs) were 7.8 Log10 CFU/mL, 7.0 Log10 CFU/mL and 6.1 Log10 CFU/mL, respectively. Further, the results for the “H2O2, ppm” value in data set [2] (1 hrs), in data set [2] (2 hrs) and in data set [2] (4 hrs) were 35 ppm, 27 ppm and 10 ppm, respectively. Further, the results for the “PAA, ppm” value in data set [2] (1 hrs), in data set [2] (2 hrs) and in data set [2] (4 hrs) were 63 ppm, 54 ppm and 30 ppm, respectively.
